# Data published in PubChem BioAssay (NCI).
#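 These data come from cells grown in 96-well plates and exposed to compound for 48 hours at five concentrations. Abbreviation: GI50, concentration required for 50% inhibition of growth. TGI: concentration producing complete growth inhibition.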
# Legend:
# Experiment in all cases: inhibition of tumour cell growth, NCI panel, 48 h
# SNB-75 CNS = tested on: SNB-75 CNS
# NCI/ADR-RES ovarian = tested on: NCI/ADR-RES ovarian
# OVCAR-5 ovarian = tested on: OVCAR-5 ovarian
# IGROV1 ovarian = tested on: IGROV1 ovarian
# HCT-15 colon = tested on: HCT-15 colon
# SW-620 colon = tested on: SW-620 colon
# SK-MEL-2 melanoma = tested on: SK-MEL-2 melanoma
# T-47D breast = tested on: T-47D breast
# PC-3 prostate = tested on: PC-3 prostate
# HS 578T breast = tested on: HS 578T breast
# HT29 colon = tested on: HT29 colon
# HCT-116 colon = tested on: HCT-116 colon
# SF-268 CNS = tested on: SF-268 CNS
# U251 CNS = tested on: U251 CNS
# NCI-H522 lung = tested on: NCI-H522 lung
# NCI-H226 lung = tested on: NCI-H226 lung
# OVCAR-4 ovarian = tested on: OVCAR-4 ovarian
# MDA-MB-435 = tested on: MDA-MB-435
# M14 melanoma = tested on: M14 melanoma
# UACC-257 melanoma = tested on: UACC-257 melanoma
# CCRF-CEM leukemia = tested on: CCRF-CEM leukemia
# SK-OV-3 ovarian = tested on: SK-OV-3 ovarian
# DU-145 prostate = tested on: DU-145 prostate
# ACHN renal = tested on: ACHN renal
# HL-60(TB) leukemia = tested on: HL-60(TB) leukemia
# RXF 393 renal = tested on: RXF 393 renal
# RPMI-8226 leukemia = tested on: RPMI-8226 leukemia
# MOLT-4 leukemia = tested on: MOLT-4 leukemia
# A549 NSCLC = tested on: A549 NSCLC
# MDA-MB-231 breast = tested on: MDA-MB-231 breast
# SK-MEL-5 melanoma = tested on: SK-MEL-5 melanoma
# HOP-92 NSCLC = tested on: HOP-92 NSCLC
# SF-539 CNS = tested on: SF-539 CNS
# MCF7 breast = tested on: MCF7 breast
# TK-10 renal = tested on: TK-10 renal
# LOX IMVI melanoma = tested on: LOX IMVI melanoma
# HOP-62 NSCLC = tested on: HOP-62 NSCLC
# SNB-19 CNS = tested on: SNB-19 CNS
# OVCAR-3 ovarian = tested on: OVCAR-3 ovarian
# NCI-H23 lung = tested on: NCI-H23 lung
# KM12 colon = tested on: KM12 colon
# BT-549 breast = tested on: BT-549 breast
# HCC-2998 colon = tested on: HCC-2998 colon
# OVCAR-8 ovarian = tested on: OVCAR-8 ovarian
# A498 renal = tested on: A498 renal
# SF-295 CNS = tested on: SF-295 CNS
# SK-MEL-28 melanoma = tested on: SK-MEL-28 melanoma
# CAKI-1 renal = tested on: CAKI-1 renal
# K-562 leukemia = tested on: K-562 leukemia
# UACC-62 melanoma = tested on: UACC-62 melanoma
# SN12C renal = tested on: SN12C renal
# COLO 205 colon = tested on: COLO 205 colon
# UO-31 renal = tested on: UO-31 renal
# EKVX NSCLC = tested on: EKVX NSCLC
# SR leukemia = tested on: SR leukemia
# NCI-H460 lung = tested on: NCI-H460 lung
# 786-0 renal = tested on: 786-0 renal
# MALME-3M melanoma = tested on: MALME-3M melanoma
# MDA-N = tested on: MDA-N
compound,measurement,setting,value
C(=C\c1ccc(OCC2CO2)cc1)/C1=NCOC1 (configuration not stated),GI50,SNB-75 CNS,16.6 µM
same,TGI,SNB-75 CNS,31.6 µM
same,GI50,NCI/ADR-RES ovarian,3.86 µM
same,TGI,NCI/ADR-RES ovarian,14.9 µM
same,GI50,OVCAR-5 ovarian,16.4 µM
same,TGI,OVCAR-5 ovarian,37.1 µM
same,GI50,IGROV1 ovarian,5.74 µM
same,TGI,IGROV1 ovarian,20.4 µM
same,GI50,HCT-15 colon,5.89 µM
same,TGI,HCT-15 colon,21.3 µM
same,GI50,SW-620 colon,6.1 µM
same,TGI,SW-620 colon,22.5 µM
same,GI50,SK-MEL-2 melanoma,10 µM
same,TGI,SK-MEL-2 melanoma,36 µM
same,GI50,T-47D breast,3.57 µM
same,TGI,T-47D breast,18.6 µM
same,GI50,PC-3 prostate,13.2 µM
same,TGI,PC-3 prostate,28 µM
same,GI50,HS 578T breast,16 µM
same,TGI,HS 578T breast,54.2 µM
same,GI50,HT29 colon,6.73 µM
same,TGI,HT29 colon,25.8 µM
same,GI50,HCT-116 colon,7.01 µM
same,TGI,HCT-116 colon,24.1 µM
same,GI50,SF-268 CNS,7.3 µM
same,TGI,SF-268 CNS,33.8 µM
same,GI50,U251 CNS,10.1 µM
same,TGI,U251 CNS,25 µM
same,GI50,NCI-H522 lung,3.13 µM
same,TGI,NCI-H522 lung,13.1 µM
same,GI50,NCI-H226 lung,16.4 µM
same,TGI,NCI-H226 lung,34.5 µM
same,GI50,OVCAR-4 ovarian,15.4 µM
same,TGI,OVCAR-4 ovarian,31.9 µM
same,GI50,MDA-MB-435,11 µM
same,TGI,MDA-MB-435,37.3 µM
same,GI50,M14 melanoma,14.5 µM
same,TGI,M14 melanoma,88.5 µM
same,GI50,UACC-257 melanoma,6.15 µM
same,TGI,UACC-257 melanoma,26.6 µM
same,GI50,CCRF-CEM leukemia,2.89 µM
same,TGI,CCRF-CEM leukemia,13.3 µM
same,GI50,SK-OV-3 ovarian,8.92 µM
same,TGI,SK-OV-3 ovarian,25.5 µM
same,GI50,DU-145 prostate,9.82 µM
same,TGI,DU-145 prostate,29.2 µM
same,GI50,ACHN renal,5.47 µM
same,TGI,ACHN renal,19.5 µM
same,GI50,HL-60(TB) leukemia,2.35 µM
same,TGI,HL-60(TB) leukemia,9.16 µM
same,GI50,RXF 393 renal,2.05 µM
same,TGI,RXF 393 renal,6.34 µM
same,GI50,RPMI-8226 leukemia,13.1 µM
same,TGI,RPMI-8226 leukemia,37.2 µM
same,GI50,MOLT-4 leukemia,3.24 µM
same,TGI,MOLT-4 leukemia,16.8 µM
same,GI50,A549 NSCLC,7.51 µM
same,TGI,A549 NSCLC,39.1 µM
same,GI50,MDA-MB-231 breast,14.7 µM
same,TGI,MDA-MB-231 breast,30.7 µM
same,GI50,SK-MEL-5 melanoma,12.6 µM
same,TGI,SK-MEL-5 melanoma,26.6 µM
same,GI50,HOP-92 NSCLC,1.41 µM
same,TGI,HOP-92 NSCLC,13.2 µM
same,GI50,SF-539 CNS,9.48 µM
same,TGI,SF-539 CNS,25.8 µM
same,GI50,MCF7 breast,4.65 µM
same,TGI,MCF7 breast,46 µM
same,GI50,TK-10 renal,16.2 µM
same,TGI,TK-10 renal,39.2 µM
same,GI50,LOX IMVI melanoma,3.35 µM
same,TGI,LOX IMVI melanoma,13.6 µM
same,GI50,HOP-62 NSCLC,26 µM
same,TGI,HOP-62 NSCLC,65.3 µM
same,GI50,SNB-19 CNS,4.73 µM
same,TGI,SNB-19 CNS,29.2 µM
same,GI50,OVCAR-3 ovarian,7.87 µM
same,TGI,OVCAR-3 ovarian,29.1 µM
same,GI50,NCI-H23 lung,10.7 µM
same,TGI,NCI-H23 lung,40.2 µM
same,GI50,KM12 colon,16.5 µM
same,TGI,KM12 colon,40.8 µM
same,GI50,BT-549 breast,12.4 µM
same,TGI,BT-549 breast,27.2 µM
same,GI50,HCC-2998 colon,7.43 µM
same,TGI,HCC-2998 colon,22.6 µM
same,GI50,OVCAR-8 ovarian,5.81 µM
same,TGI,OVCAR-8 ovarian,28 µM
same,GI50,A498 renal,21.9 µM
same,TGI,A498 renal,43.2 µM
same,GI50,SF-295 CNS,28.3 µM
same,TGI,SF-295 CNS,84.6 µM
same,GI50,SK-MEL-28 melanoma,6.3 µM
same,TGI,SK-MEL-28 melanoma,21.4 µM
same,GI50,CAKI-1 renal,16.3 µM
same,TGI,CAKI-1 renal,40.8 µM
same,GI50,K-562 leukemia,4.23 µM
same,TGI,K-562 leukemia,> 100 µM
same,GI50,UACC-62 melanoma,12.2 µM
same,TGI,UACC-62 melanoma,26.5 µM
same,GI50,SN12C renal,10.6 µM
same,TGI,SN12C renal,25.9 µM
same,GI50,COLO 205 colon,6.33 µM
same,TGI,COLO 205 colon,32.4 µM
same,GI50,UO-31 renal,3.64 µM
same,TGI,UO-31 renal,12.8 µM
same,GI50,EKVX NSCLC,19.1 µM
same,TGI,EKVX NSCLC,58.4 µM
same,GI50,SR leukemia,3.05 µM
same,TGI,SR leukemia,11.9 µM
same,GI50,NCI-H460 lung,19.9 µM
same,TGI,NCI-H460 lung,57.7 µM
same,GI50,786-0 renal,17.6 µM
same,TGI,786-0 renal,53.4 µM
same,GI50,MALME-3M melanoma,19.9 µM
same,TGI,MALME-3M melanoma,58.7 µM
Oc1ccc(/C=N/NC(=S)Nc2cccnc2)nc1,TGI,SNB-75 CNS,97 µM
same,TGI,NCI/ADR-RES ovarian,9.59 µM
same,TGI,OVCAR-5 ovarian,> 100 µM
same,TGI,IGROV1 ovarian,> 100 µM
same,TGI,HCT-15 colon,> 100 µM
same,TGI,SW-620 colon,> 100 µM
same,TGI,SK-MEL-2 melanoma,> 100 µM
same,TGI,MDA-N,> 100 µM
same,TGI,T-47D breast,> 100 µM
same,TGI,PC-3 prostate,> 100 µM
same,TGI,HT29 colon,> 100 µM
same,TGI,HCT-116 colon,> 100 µM
same,TGI,SF-268 CNS,> 100 µM
same,TGI,U251 CNS,> 67 µM
same,TGI,NCI-H522 lung,21.7 µM
same,TGI,NCI-H226 lung,> 100 µM
same,TGI,OVCAR-4 ovarian,> 100 µM
same,TGI,MDA-MB-435,> 100 µM
same,TGI,M14 melanoma,> 33.3 µM
same,TGI,UACC-257 melanoma,76.9 µM
same,TGI,CCRF-CEM leukemia,9.78 µM
same,TGI,SK-OV-3 ovarian,> 100 µM
same,TGI,DU-145 prostate,> 89.4 µM
same,TGI,ACHN renal,32.3 µM
same,TGI,HL-60(TB) leukemia,14.4 µM
same,TGI,RXF 393 renal,> 61.2 µM
same,TGI,RPMI-8226 leukemia,76.4 µM
same,TGI,MOLT-4 leukemia,15 µM
same,TGI,A549 NSCLC,> 100 µM
same,TGI,MDA-MB-231 breast,> 31.6 µM
same,TGI,SK-MEL-5 melanoma,> 100 µM
same,TGI,HOP-92 NSCLC,59.6 µM
same,TGI,SF-539 CNS,19.6 µM
same,TGI,MCF7 breast,> 39 µM
same,TGI,TK-10 renal,> 25.7 µM
same,TGI,LOX IMVI melanoma,> 100 µM
same,TGI,HOP-62 NSCLC,> 100 µM
same,TGI,SNB-19 CNS,> 100 µM
same,TGI,OVCAR-3 ovarian,> 100 µM
same,TGI,NCI-H23 lung,61.9 µM
same,TGI,KM12 colon,> 100 µM
same,TGI,HCC-2998 colon,> 100 µM
same,TGI,OVCAR-8 ovarian,12.6 µM
same,TGI,A498 renal,> 81.2 µM
same,TGI,SF-295 CNS,> 75.6 µM
same,TGI,SK-MEL-28 melanoma,> 100 µM
same,TGI,CAKI-1 renal,> 100 µM
same,TGI,K-562 leukemia,> 23.1 µM
same,TGI,UACC-62 melanoma,29.3 µM
same,TGI,SN12C renal,> 57 µM
same,TGI,COLO 205 colon,> 100 µM
same,TGI,UO-31 renal,> 26.9 µM
same,TGI,EKVX NSCLC,> 100 µM
same,TGI,SR leukemia,0.807 µM
same,TGI,786-0 renal,> 73.5 µM
same,TGI,MALME-3M melanoma,9.12 µM
